Earlier results on four sequences are cited in patent US7702465B2 (priority 2002, dated 2010).

Data set [1] concerns the target HLA A*0201 (Homo sapiens, UniProt P04439, /I218V/L300P/L318F/N151K/N90K/P208A/P217A/Q86G/Q94H/R138H/R169H/T345S). As to conditions: binding to HLA A*0201; nonameric peptides from HPV E6 and E7; literature data of Rudolf et al. (2001).
For data set [2], the target named is HLA A*0201 (Homo sapiens, UniProt P04439, D140Y/D185E/D98H/E176V/E277Q/G131W/G231S/I119V/I121R/I166T/I218V/L300P/L318F/N151K/N90K/P208A/P217A/Q86G/Q94H/R138H/R169H/T345S). Conditions: binding peptides = the 15 of 247 with IC50 3 to 943 nM (Rudolf et al. 2001).

For orientation: IC50 means the concentration at which inhibition is half-maximal. FAFKDLFVV: the IC50 at HLA A*0201 [1] was 3 nM. Turning to FKDLFVVYR, the half-inhibitory concentration (IC50) at HLA A*0201 [1] was 500 nM.

On to LFLNTLSFV, for which, in the data set with HLA A*0201 [2], the “classification as binder to HLA A*0201” value was “binding peptides”.

On to LYNLLIRCL, for which the “classification as binder to HLA A*0201” value on HLA A*0201 [2] was “binding peptides”.
